Our source for the EC50 and CC50 values is patent US20180072997A1, “INHIBITORS OF HUMAN IMMUNODEFICIENCY VIRUS REPLICATION” (ViiV HEATHCARE UK (NO.5) LIMITED, priority 2015, published 2018).

In series [1] the test system is recombinant NL4-3 virus (Renilla luciferase in nef) in MT-2 cells. Put plainly: whole plant or invertebrate. The format is cell-based, HIV. The following applies: Renilla, NL43, MT-2 cells infected for 4-5 days with recombinant NL4-3 Renilla luciferase virus; luciferase activity. The essentials: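 MT-2 cells infected for 4-5 days with NL4-3 reporter virus (Renilla luciferase replacing part of nef, produced by transfection of 293T cells) in the presence of serial compound dilutions. Antiviral activity quantified by luciferase activity read with a live-cell substrate.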

Series [2] can be described thus: Compound cytotoxicity, XTT-based colorimetric assay. The format is cell-based. Conditions: human, uninfected MT2 cells, day 4, XTT. The essentials:
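Run under the antiviral-assay protocol but without virus. Viability was read on day 4 and CC50 values were derived from the readout.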

Consider `CN(C(=O)[C@H](Cc1cc(F)cc(F)c1)NC(=O)c1ccc(F)c(C(=O)N[C@@H](Cc2cc(F)cc(F)c2)C(=O)N(C)c2ccc3snnc3c2)c1)c1ccc2snnc2c1` [Example 179], for which, in series [1], the EC50 (as a rule, the concentration giving half of the maximal effect) was 0.34 µM. Also, the CC50 (usually the concentration that lowers cell viability or growth by half) at 4 days in series [2] was at least 100 µM.
Turning to `C=CCN(C(=O)[C@H](Cc1cc(F)cc(F)c1)NC(=O)NS(=O)(=O)N[C@@H](Cc1cc(F)cc(F)c1)C(=O)N(CC=C)c1ccc2scnc2c1)c1ccc2scnc2c1` [Example 140], the EC50 in series [1] stood at 0.1 µM. Besides, the CC50 at 4 days in series [2] turned out to be 32.7 µM.
Regarding `COc1ccc(N(C)C(=O)[C@H](Cc2ccccc2)NC(=O)COc2nc3ccccc3n(CC(=O)N[C@@H](Cc3ccccc3)C(=O)N(C)c3ccc(OC)cc3)c2=O)cc1` [Example 95], in series [1], the EC50 came out at 0.21 µM. Moreover, the 50% cytotoxic concentration (CC50) at 4 days in series [2] is at least 50 µM.
In the same order, the values of `CN(C(=O)[C@H](Cc1cc(F)cc(F)c1)NC(=O)N[C@@H](Cc1cc(F)cc(F)c1)C(=O)N(C)c1ccc2scnc2c1)c1ccc2scnc2c1` [Example 221] are 0.52 µM and at least 100 µM.
In the case of `COc1ccc(N(C)C(=O)[C@H](Cc2ccccc2)NC(=O)Cn2c(=O)n(CC(=O)N[C@@H](Cc3ccccc3)C(=O)N(C)c3ccc(OC)cc3)c3cc(NC(C)=O)ccc32)cc1` [Example 97], the concentration giving a half-maximal response (EC50) in series [1] was determined as 2.6 µM. The compound also returned a 50% cytotoxic concentration (CC50) at 4 days in series [2] of at least 100 µM.
On to `CN(C(=O)[C@H](Cc1cc(F)cc(F)c1)NC(=O)NS(=O)(=O)N[C@@H](Cc1cc(F)cc(F)c1)C(=O)N(C)c1ccc(OC(F)(F)F)cc1)c1ccc(OC(F)(F)F)cc1` [Example 189], for which the half-maximal effective concentration (EC50) in series [1] was determined as 0.01 µM. Besides, the midpoint of cytotoxicity in series [2], the CC50 at 4 days, lay at 8.2 µM.
With `COc1ccc(N(C)C(=O)[C@H](Cc2ccccc2)NC(=O)NS(=O)(=O)N[C@@H](Cc2ccccc2)C(=O)N(C)c2ccc3c(c2)OCO3)cc1` [Example 14], in series [1], the EC50 came out at 0.08 µM. This compound yielded a half-maximal cytotoxic concentration (CC50) at 4 days in series [2] of at least 50 µM.
For `COc1ccc(-n2ccnc2C(Cc2ccccc2)NC(=O)NS(=O)(=O)N[C@@H](Cc2ccccc2)c2nccn2-c2ccc(OC)cc2)cc1` (stereo partly shown) [Example 159], in series [1], the EC50 was 3.68 µM. Further, the CC50 at 4 days in series [2] worked out at 86.4 µM.
In the case of `COc1ccc(N(C)C(=O)[C@H](Cc2ccccc2)NC(=O)Cn2c(=O)n(CC(=O)N[C@@H](Cc3ccccc3)C(=O)N(C)c3ccc(OC)cc3)c3c(Cl)cccc32)cc1` [Example 73], in series [1], the EC50 came to 0.07 µM. For the same compound, the CC50 at 4 days in series [2] stood at 39.9 µM.
Consider `COc1ccc(N(C)C(=O)[C@H](Cc2cc(F)cc(F)c2)NC(=O)Cn2c(=O)n(CC(=O)N[C@@H](Cc3cc(F)cc(F)c3)C(=O)N(C)c3ccc(OC)cc3)c3cc(F)ccc32)cc1` [Example 76], for which the concentration for a half-maximal effect (EC50) in series [1] was determined as 0.03 µM. This compound came in with a CC50 at 4 days in series [2] of 11.4 µM.
For `CN(C(=O)[C@H](Cc1ccccc1)NC(=O)c1ccc(F)c(C(=O)N[C@@H](Cc2ccccc2)C(=O)N(C)c2ccc3scnc3c2)c1)c1ccc2scnc2c1` [Example 169], in that order: 0.06 µM and 4.5 µM.
`CN(C(=O)[C@H](Cc1cc(F)cc(F)c1)NC(=O)NS(=O)(=O)N[C@@H](Cc1cc(F)cc(F)c1)C(=O)N(C)c1ccc(OC(F)F)nc1)c1ccc(OC(F)F)nc1` [Example 214]: the EC50 in series [1] came to 0.01 µM. The compound also came in with a CC50 at 4 days in series [2] of 43.8 µM.
In the same order, the values of `COc1ccc(N(C)C(=O)[C@H](Cc2cc(F)cc(F)c2)NC(=O)CN2c3ccccc3N(CC(=O)N[C@@H](Cc3cc(F)cc(F)c3)C(=O)N(C)c3ccc(OC)c(F)c3)S2(=O)=O)cc1F` [Example 231] are 0.04 µM and at least 100 µM.
`COc1ccc(N(C)C(=O)[C@H](Cc2ccccc2)NC(=O)Cn2c(=O)n(CC(=O)N[C@@H](Cc3ccccc3)C(=O)N(C)c3ccc(OC)cc3)c3cc(N)ccc32)cc1` [Example 90]: the EC50 in series [1] was 0.34 µM. In addition, the midpoint of cytotoxicity in series [2], the CC50 at 4 days, lay at 22.7 µM.
For `COc1ccc(N(C)C(=O)[C@H](Cc2ccccc2)NC(=O)NC(=O)N[C@@H](Cc2ccccc2)C(=O)N(C)c2ccc(OC)cc2)cc1` [Example 10], the 50% effective concentration (EC50) in series [1] was found to be 4.71 µM. Moreover, half-maximal cytotoxicity in series [2] (CC50 at 4 days) was put at 10.5 µM.
In the same order, the values of `Cc1ccc(N(C)C(=O)[C@H](Cc2ccccc2)NC(=O)NS(=O)(=O)N[C@@H](Cc2ccccc2)C(=O)N(C)c2ccc(C)c(Cl)c2)cc1Cl` [Example 220] are 3.8 µM and 16.7 µM.
Consider `COc1ccc(N(C)C(=O)[C@H](Cc2ccccc2)NC(=O)C2CCCCC2C(=O)N[C@@H](Cc2ccccc2)C(=O)N(C)c2ccc(OC)cc2)cc1` (mixture of isomers) [Example 53], for which the half-maximal effective concentration (EC50) in series [1] worked out at 0.34 µM. Besides, the half-maximal cytotoxic concentration (CC50) at 4 days in series [2] was at least 33.3 µM.
As for `COc1ccc(N(C)C(=O)[C@H](Cc2ccccc2)NC(=O)CNC(=O)NCC(=O)N[C@@H](Cc2ccccc2)C(=O)N(C)c2ccc(OC)cc2)cc1` [Example 68], in series [1], the concentration giving a half-maximal response (EC50) stood at 1.42 µM. Further, the cytotoxic concentration (CC50) at 4 days in series [2] is 69.3 µM.
Turning to `COc1ccc(N(C)C(=O)[C@H](Cc2ccccc2)NC(=O)c2ccc(C(=O)N[C@@H](Cc3ccccc3)C(=O)N(C)c3ccc(OC)cc3)s2)cc1` [Example 58], the EC50 in series [1] stood at 0.61 µM. The cytotoxic concentration (CC50) at 4 days in series [2] was determined as 3.3 µM.
Consider `COc1ccc(N(C)C(=O)[C@H](Cc2ccccc2)NC(=O)NS(=O)(=O)N[C@@H](Cc2ccccc2)C(=O)N(C)c2cc(C)c(OC)cc2C)cc1` [Example 15], for which the concentration for a half-maximal effect (EC50) in series [1] was 4.22 µM. The same compound registered a CC50 at 4 days in series [2] of 35.3 µM.
On to `COc1ccc(N(C)C(=O)[C@H](Cc2ccccc2)NC(=O)c2cccc(C(=O)N[C@@H](Cc3ccccc3)C(=O)N(C)c3ccc(OC)cc3)c2)cc1` [Example 24], for which the concentration giving a half-maximal response (EC50) in series [1] turned out to be 0.09 µM. The cytotoxic concentration (CC50) at 4 days in series [2] was 4.2 µM.
As to `CN(C(=O)[C@H](Cc1ccccc1)Nc1nccc(-c2ccnc(N[C@@H](Cc3ccccc3)C(=O)N(C)c3ccc4scnc4c3)n2)n1)c1ccc2scnc2c1` [Example 135], the EC50 in series [1] was 0.09 µM. In series [2], this compound had a CC50 at 4 days of 0.5 µM.
For the compound `CN(C(=O)[C@H](Cc1cc(F)cc(F)c1)NC(=O)c1ccc(F)c(C(=O)N[C@@H](Cc2cc(F)cc(F)c2)C(=O)N(C)c2ccc(C3CC3)cc2)c1)c1ccc(C2CC2)cc1` [Example 230], the concentration for a half-maximal effect (EC50) in series [1] came out at 0.02 µM. In addition, in series [2], the CC50 at 4 days is at least 100 µM.
For `COc1ccc(N(C)C(=O)[C@H](Cc2ccccc2)NC(=O)NS(=O)(=O)N[C@H](Cc2ccccc2)C(=O)N(C)c2ccc(OC)cc2)cc1` [Example 11], in that order: 0.47 µM and at least 33.3 µM.
Consider `CN(C(=O)[C@H](Cc1cc(F)cc(F)c1)NC(=O)NS(=O)(=O)N[C@@H](Cc1cc(F)cc(F)c1)C(=O)N(C)c1ccc2nccnc2c1)c1ccc2nccnc2c1` [Example 203], for which the EC50 in series [1] was found to be 30.4 µM. This compound also showed a CC50 at 4 days in series [2] of at least 100 µM.
With `O=C(N[C@@H](Cc1cc(F)cc(F)c1)c1ncccc1Br)NS(=O)(=O)N[C@@H](Cc1cc(F)cc(F)c1)c1ncccc1Br` [Example 36], in series [1], the EC50 stood at 7.27 µM. In series [2], the CC50 at 4 days worked out at 65.3 µM.
For the compound `COc1ccc(N(C)C(=O)[C@H](Cc2ccccc2)NC(=O)c2cc(C(=O)N[C@@H](Cc3ccccc3)C(=O)N(C)c3ccc(OC)cc3)ncn2)cc1` [Example 112], the concentration for a half-maximal effect (EC50) in series [1] came to 1.71 µM. Besides, half-maximal cytotoxicity in series [2] (CC50 at 4 days) was put at 1.3 µM.
In the same order, the values of `COc1ccc(N(C)C(=O)[C@H](Cc2ccccc2)NC(=O)NS(=O)(=O)N[C@@H](Cc2ccccc2)C(=O)N(C)c2ccc(OC)cc2C)cc1` [Example 16] are 1.72 µM and at least 33.3 µM.
Take `COc1ccc(N(C)C(=O)[C@H](Cc2cc(F)cc(F)c2)NC(=O)c2ccc(F)c(C(=O)N[C@@H](Cc3cc(F)cc(F)c3)C(=O)N(C)c3ccc(OC)c(F)c3)c2)cc1F` [Example 232]: in series [1], the EC50 was 0.18 µM. Moreover, the cytotoxic concentration (CC50) at 4 days in series [2] is at least 33.3 µM.
In the case of `COc1ccc(N(C)C(=O)[C@H](Cc2ccccc2)NC(=O)Cn2c(=O)c3ccccc3n(CC(=O)N[C@@H](Cc3ccccc3)C(=O)N(C)c3ccc(OC)cc3)c2=O)cc1` [Example 100], the concentration for a half-maximal effect (EC50) in series [1] is 0.07 µM. The same compound showed a CC50 at 4 days in series [2] of at least 100 µM.
Take `COc1ccc(N(C)C(=O)[C@H](Cc2ccccc2)NC(=O)NS(=O)(=O)N[C@@H](Cc2cc(F)cc(F)c2)C(=O)N(C)c2ccc(OC)cc2)cc1` [Example 44]: the EC50 in series [1] worked out at 0.02 µM. This compound gave a 50% cytotoxic concentration (CC50) at 4 days in series [2] of 67 µM.
In the same order, the values of `COc1ccc(N(C)C(=O)[C@H](Cc2ccccc2)NC(=O)Cn2c(=O)c(=O)n(CC(=O)N[C@@H](Cc3ccccc3)C(=O)N(C)c3ccc(OC)cc3)c3ccccc32)cc1` [Example 94] are 0.16 µM and 23.2 µM.
For the compound `CN(C(=O)[C@H](Cc1cc(F)cc(F)c1)NC(=O)CN1c2ccccc2N(CC(=O)N[C@@H](Cc2cc(F)cc(F)c2)C(=O)N(C)c2ccc3sncc3c2)S1(=O)=O)c1ccc2sncc2c1` [Example 160], the EC50 in series [1] came to 0.02 µM. In series [2], this compound displayed a 50% cytotoxic concentration (CC50) at 4 days of at least 100 µM.
In the case of `CCN(C(=O)[C@H](Cc1cc(F)cc(F)c1)NC(=O)CN1c2ccccc2N(CC(=O)N[C@@H](Cc2cc(F)cc(F)c2)C(=O)N(CC)c2ccc(OC(F)F)cc2)S1(=O)=O)c1ccc(OC(F)F)cc1` [Example 147], the EC50 in series [1] was 0.09 µM. Besides, the CC50 at 4 days in series [2] was at least 100 µM.
As to `COc1ccc(N(C)C(=O)[C@H](Cc2ccccc2)NC(=O)Cn2c(=O)n(CC(=O)N[C@@H](Cc3ccccc3)C(=O)N(C)c3ccc(OC)cc3)c3cc(OC)ccc32)cc1` [Example 83], the EC50 in series [1] turned out to be 0.09 µM. This compound displayed a CC50 at 4 days in series [2] of 6.2 µM.
For `COc1ccc(N(CCF)C(=O)[C@H](Cc2cc(F)cc(F)c2)NC(=O)Cn2c(=O)n(CC(=O)N[C@@H](Cc3cc(F)cc(F)c3)C(=O)N(CCF)c3ccc(OC)cc3)c3ccccc32)cc1` [Example 125], in that order: 0.34 µM and at least 100 µM.
For `Cc1ccc(N(C)C(=O)[C@H](Cc2cc(F)cc(F)c2)NC(=O)NS(=O)(=O)N[C@@H](Cc2cc(F)cc(F)c2)C(=O)N(C)c2ccc(C)cn2)nc1` [Example 182], in that order: 0.4 µM and 97.9 µM.
In the case of `CCCc1ccc(N(C)C(=O)[C@H](Cc2cc(F)cc(F)c2)NC(=O)NS(=O)(=O)N[C@@H](Cc2cc(F)cc(F)c2)C(=O)N(C)c2ccc(CCC)cc2)cc1` [Example 182B], the 50% effective concentration (EC50) in series [1] came to 0.02 µM. Also, the CC50 at 4 days in series [2] stood at 13.4 µM.
